Data set [1] has as its system Festuca rubra. Kind of data set: Toxicity against Festuca rubra applied using logarithmic sprayer. The data set is classed as organism-based. The note with it: in vivo.
Data set [2] in a line: Selectivity index, ratio of ED10 for Festuca rubra L. to ED90 for Poa pratensis subsp. Pratensis.
Data set [3] concerns Poa pratensis subsp. pratensis. Kind of data set: Herbicidal activity against Poa pratensis subsp. pratensis applied using logarithmic sprayer. The format is functional.
Data set [4] is described as follows: Ratio of ED50 for Festuca arundinacea to ED50 for Poa pratensis subsp. Pratensis.
The nature of data set [5]: Ratio of ED50 for Festuca rubra L. to ED50 for Poa pratensis subsp. Pratensis.
Data set [6] in a line: Ratio of ED50 for Festuca pratensis to ED50 for Poa pratensis subsp. Pratensis.
Data set [7] deals with Poa pratensis subsp. pratensis. Kind of data set: Herbicidal activity against Poa pratensis subsp. pratensis applied during spring season using logarithmic sprayer. The format is functional.
Data set [8] relates to Festuca rubra. Kind of data set: Toxicity against Festuca rubra applied applied during spring season using logarithmic sprayer. The format is organism-based. The note with it: in vivo.
A short description of data set [9]: Ratio of ED50 for Lolium perenne to ED50 for Poa pratensis subsp. Pratensis.

The structures appear in SMILES notation.

In the case of `C#CCOC(=O)[C@@H](C)Oc1ccc(Oc2ncc(Cl)cc2F)cc1` [CLODINAFOP PROPARGYL], the ED50 in data set [1] amounted to 0.923 kg/ha; in data set [3], 0.192 kg/ha. Moreover, the Selectivity Index in data set [2] was > 1.
Consider `CCOC(=O)[C@@H](C)Oc1ccc(Oc2nc3ccc(Cl)cc3o2)cc1` [FENOXAPROP-P-ETHYL], for which the ED50 in data set [1] turned out to be 1.137 kg/ha; in data set [3], 0.408 kg/ha. Further, the Ratio ED50 in [4], in data set [5] and in [6] was > 2 each time. The ED90 in data set [3] was 0.68 kg/ha.
Take `COc1cc(OC)nc(NC(=O)NS(=O)(=O)c2nc(C(F)(F)F)ccc2C(=O)O)n1` [FLUPYRSULFURON]: the ED50 was 0.019 kg/ha in data set [7], 0.024 kg/ha in [1], 0.017 kg/ha in [3] and 0.04 kg/ha in data set [8]. Also, the Ratio ED50 in data set [5] was > 2.
As for `O=C(O)CNCP(=O)(O)O` [GLYPHOSATE], the ED50 in data set [1] is recorded as 0.263 L/ha.
As to `COc1nc(C)nc(NC(=O)NS(=O)(=O)c2cc(I)ccc2C(=O)O)n1` [IODOSULFURON], the ED50 is given as 0.367 kg/ha in data set [1] and 0.184 kg/ha in data set [3].
In the same order, the values of `CCC(CC)Nc1c([N+](=O)[O-])cc(C)c(C)c1[N+](=O)[O-]` [PENDIMETHALIN] are 3.531 L/ha and 1.761 L/ha.
`CCCN(CCC)C(=O)SCc1ccccc1` [PROSULFOCARB]: the ED50 in [3] was determined as 2.337 kg/ha.
For the molecule `CCS(=O)(=O)c1nc2ccccn2c1S(=O)(=O)NC(=O)Nc1nc(OC)cc(OC)n1` [SULFOSULFURON], the ED50 in data set [1] was 0.007 kg/ha; in [3], 0.014 kg/ha. The Ratio ED50 in [9] was > 1.

The values above are taken from ChEMBL document CHEMBL3045923, “Using a selectivity index to evaluate logarithmic spraying in grass seed crops” (Pest Manag Sci, 2009).
